Reference: ChEMBL document CHEMBL3400148, “Structure-based discovery of small molecule hepsin and HGFA protease inhibitors: Evaluation of potency and selectivity derived from distinct binding pockets” (Bioorg Med Chem, 2015)
Active and inactive are the calls of the source. No cut-off for these calls is given here.

Legend:
[1] = biological target: T1, Hepatocyte growth factor activator serine protease (Homo sapiens, UniProt Q04756); test: Inhibition of recombinant N-terminal His-tagged HGFA (unknown origin) expressed in baculovirus-infected Sf9 cells incubated for 30 mins prior to cromogenic substrate addition by spectrophotometry
T1 sequence (Q04756 whole entry): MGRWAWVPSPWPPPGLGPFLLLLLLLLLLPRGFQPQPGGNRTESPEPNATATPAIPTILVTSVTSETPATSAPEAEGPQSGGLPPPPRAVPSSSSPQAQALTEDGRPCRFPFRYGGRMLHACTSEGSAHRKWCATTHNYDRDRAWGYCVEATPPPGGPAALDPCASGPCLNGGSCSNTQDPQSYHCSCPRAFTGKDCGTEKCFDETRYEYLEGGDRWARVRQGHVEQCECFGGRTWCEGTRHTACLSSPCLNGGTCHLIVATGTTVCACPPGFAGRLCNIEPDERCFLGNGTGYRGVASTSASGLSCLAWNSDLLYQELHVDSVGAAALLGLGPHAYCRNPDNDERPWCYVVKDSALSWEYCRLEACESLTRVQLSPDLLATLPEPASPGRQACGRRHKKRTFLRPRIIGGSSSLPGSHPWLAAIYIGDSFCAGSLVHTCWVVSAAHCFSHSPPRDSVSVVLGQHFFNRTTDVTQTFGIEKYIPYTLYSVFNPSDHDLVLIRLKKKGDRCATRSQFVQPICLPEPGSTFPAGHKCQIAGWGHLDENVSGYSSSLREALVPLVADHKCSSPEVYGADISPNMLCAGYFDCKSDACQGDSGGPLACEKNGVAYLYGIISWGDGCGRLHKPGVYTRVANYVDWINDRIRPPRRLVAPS

[2] = biological target: Serine protease hepsin (Homo sapiens, UniProt P05981); test: Inhibition of hepsin (unknown origin) using Boc-QAR-AMC as substrate after 30 mins prior to substrate addition by fluorescence assay
Chain of Serine protease hepsin (P05981 1-162 limits assumed): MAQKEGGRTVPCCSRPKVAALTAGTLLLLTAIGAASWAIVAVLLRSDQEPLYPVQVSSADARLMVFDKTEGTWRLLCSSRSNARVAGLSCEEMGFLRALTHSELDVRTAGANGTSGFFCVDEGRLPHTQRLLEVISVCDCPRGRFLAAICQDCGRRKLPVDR
Chain of Serine protease hepsin (P05981 163-417 limits assumed): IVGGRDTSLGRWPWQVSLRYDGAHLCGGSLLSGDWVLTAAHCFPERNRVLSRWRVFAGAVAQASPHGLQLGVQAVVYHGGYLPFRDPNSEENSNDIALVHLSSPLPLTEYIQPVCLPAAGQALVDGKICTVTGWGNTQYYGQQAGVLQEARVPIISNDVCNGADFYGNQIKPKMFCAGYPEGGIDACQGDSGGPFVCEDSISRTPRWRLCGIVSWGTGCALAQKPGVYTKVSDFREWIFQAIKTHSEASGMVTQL

[3] = biological target: T2, Suppressor of tumorigenicity 14 protein (Homo sapiens, UniProt Q9Y5Y6); test: Inhibition of matripase (unknown origin) using Boc-QAR-AMC as substrate incubated for 30 mins prior to substrate addition by fluorescence assay
T2 sequence (Q9Y5Y6 whole entry): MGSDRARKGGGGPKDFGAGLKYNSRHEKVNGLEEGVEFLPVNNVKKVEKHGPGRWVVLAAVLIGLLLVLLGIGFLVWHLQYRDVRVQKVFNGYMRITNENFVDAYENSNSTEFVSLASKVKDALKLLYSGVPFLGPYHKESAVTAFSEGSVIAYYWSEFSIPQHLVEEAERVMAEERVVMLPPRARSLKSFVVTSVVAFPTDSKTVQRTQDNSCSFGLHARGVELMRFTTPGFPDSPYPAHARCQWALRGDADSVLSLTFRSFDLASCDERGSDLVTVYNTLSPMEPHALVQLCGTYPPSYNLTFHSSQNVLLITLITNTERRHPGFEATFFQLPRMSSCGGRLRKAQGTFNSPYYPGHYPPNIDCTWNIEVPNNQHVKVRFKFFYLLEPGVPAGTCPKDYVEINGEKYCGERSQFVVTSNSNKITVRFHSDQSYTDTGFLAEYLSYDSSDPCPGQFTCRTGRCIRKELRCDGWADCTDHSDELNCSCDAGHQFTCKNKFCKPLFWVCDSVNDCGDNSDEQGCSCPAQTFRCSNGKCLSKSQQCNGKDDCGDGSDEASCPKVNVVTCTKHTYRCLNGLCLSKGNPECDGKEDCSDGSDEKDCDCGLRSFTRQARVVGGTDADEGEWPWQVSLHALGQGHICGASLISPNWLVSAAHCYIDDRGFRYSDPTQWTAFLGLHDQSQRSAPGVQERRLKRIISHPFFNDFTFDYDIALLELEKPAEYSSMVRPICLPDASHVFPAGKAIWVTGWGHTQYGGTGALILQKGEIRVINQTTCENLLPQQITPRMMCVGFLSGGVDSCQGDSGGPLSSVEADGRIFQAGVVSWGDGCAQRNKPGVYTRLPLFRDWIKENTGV

[4] = biological target: T1, Hepatocyte growth factor activator serine protease; test: Inhibition of HGFA (unknown origin) after 40 mins by Eadie-Hofstee plot analysis
[5] = biological target: T1, Hepatocyte growth factor activator serine protease; test: Inhibition of recombinant N-terminal His-tagged HGFA (unknown origin) expressed in baculovirus-infected Sf9 cells using Boc-QLR-AMC as substrate incubated for 30 mins prior to substrate addition by fluorescence assay
[6] = biological target: T3, Hepatocyte growth factor activator serine protease (Homo sapiens) (UniProt Q04756); test: Inhibition of recombinant N-terminal His-tagged HGFA (unknown origin) expressed in baculovirus-infected Sf9 cells using Boc-QLR-AMC as substrate up to 20 uM incubated for 30 mins prior to substrate addition by fluorescence assay
T3 sequence (whole entry): T1 sequence (Q04756 whole entry)

Row | SMILES | IC50 [1] | Ki [2] | Ki [3] | other results
1 | Cc1ccc(S(=O)(=O)N[C@@H](Cc2cccc(C(=N)N)c2)C(=O)N2CCC(c3ccccc3)CC2)cc1 | – | 4700 nM | 480 nM | –
2 | CCc1cc([C@@H](Nc2ccc(C(=N)N)cc2)C(=O)NS(=O)(=O)c2cn(C)cn2)cc2c(C)coc12 | – | – | – | Ki [4]: 590 nM
3 | CCCCCCNC(=O)N1CCN(C(=O)[C@H](Cc2cccc(C(=N)N)c2)NS(=O)(=O)c2ccc3ccccc3c2)CC1 | – | 1200 nM | – | –
4 | CC(C)c1cc(C(C)C)c(S(=O)(=O)N[C@@H](Cc2cccc(C(=N)N)c2)C(=O)N2CCN(C(=O)C3CCNCC3)CC2)c(C(C)C)c1 | – | 7400 nM | – | Ki [5]: 5500 nM
5 | N=C(N)c1cccc(C[C@H](NS(=O)(=O)c2ccc3ccccc3c2)C(=O)N2CCN(C(=O)NCc3ccc(Br)cc3)CC2)c1 | – | – | 4600 nM | –
6 | CCc1cc(C(Nc2ccc(C(=N)N)cc2)C(=O)NS(=O)(=O)c2cn(C)cn2)cc2c(C)coc12 (racemic) | – | 553 nM | 7180 nM | Ki [5]: 7100 nM
7 | Cc1ccc(S(=O)(=O)N[C@@H](Cc2cccc(C(=N)N)c2)C(=O)N2CCN(C(=O)NCCc3ccccc3)CC2)cc1 | – | 670 nM | 2500 nM | Ki [5]: > 50000 nM
8 | N=C(N)c1cccc(C[C@H](NS(=O)(=O)c2ccc3ccccc3c2)C(=O)N2CCN(C(=O)NCc3ccccc3)CC2)c1 | – | – | 2600 nM | –
9 | O=C(NC[C@H]1CN(c2ccc(N3CCOCC3=O)cc2)C(=O)O1)c1ccc(Cl)s1 [RIVAROXABAN] | – | – | 3350 nM | –
10 | CC(C)c1cc(C(C)C)c(S(=O)(=O)N[C@@H](Cc2cccc(C(=N)N)c2)C(=O)N2CCN(C(=O)C3CCN(C(=N)N)CC3)CC2)c(C(C)C)c1 | – | 1580 nM | 4.3 nM | Ki [5]: 17000 nM
11 | Cc1ccc(S(=O)(=O)N[C@@H](Cc2cccc(C(=N)N)c2)C(=O)N2CCC[C@H](NC(=O)OCc3ccccc3)C2)cc1 | – | – | 1200 nM | –
12 | [H]/N=C(/N)c1ccc(NCc2nc3cc(C(=O)N(CCC(=O)O)c4ccccn4)ccc3n2C)cc1 [DABIGATRAN] | – | 835 nM | – | –
13 | N=C(N)c1cccc(C[C@H](NS(=O)(=O)c2ccc3ccccc3c2)C(=O)N2CCN(C(=O)c3csc4ccccc34)CC2)c1 | – | 3500 nM | 1500 nM | –
14 | Cc1ccc(S(=O)(=O)N[C@@H](CCCCN)C(=O)CCl)cc1 | – | – | – | inhibition [6]: inactive
15 | N=C(N)c1cccc(C[C@H](NS(=O)(=O)c2ccc3ccccc3c2)C(=O)N2CCC[C@@H](NC(=O)OCc3ccccc3)C2)c1 | – | 2600 nM | 6700 nM | –

More lines, main results first:

Row | IC50 [1] | Ki [2] | Ki [3] | SMILES | other results
16 | 1100 nM | – | – | COC(=O)c1ccc(OC(=O)c2ccc(NC(=N)N)cc2)cc1 | –
17 | 300 nM | – | – | N=C(N)Nc1ccc(C(=O)Oc2ccc([N+](=O)[O-])cc2Cl)cc1 | –
18 | > 50000 nM | – | – | Cc1ccc(S(=O)(=O)Nc2ccc(NC(=N)N)cc2)cc1 | –
19 | 3000 nM | – | – | N=C(N)Nc1ccc(C(=O)Oc2cccc([N+](=O)[O-])c2)cc1 | –
20 | > 50000 nM | – | – | N=C(N)Nc1ccc(C(=O)Nc2ccccc2)cc1 | –
21 | 820 nM | – | – | N=C(N)Nc1ccc(C(=O)Oc2ccc([N+](=O)[O-])cc2)cc1 | –
22 | > 50000 nM | – | – | COC(=O)c1ccc2cc(NS(=O)(=O)c3ccc(NC(=N)N)cc3)ccc2c1 | –
23 | 600 nM | – | – | COC(=O)c1ccc2cc(OC(=O)c3ccc(NC(=N)N)cc3)ccc2c1 | –
24 | 6800 nM | – | – | N=C(N)Nc1ccc(C(=O)Oc2ccc(C(N)=O)cc2)cc1 | –
25 | 150 nM | – | – | N=C(N)c1ccc2cc(OC(=O)c3ccc(N=C(N)N)cc3)ccc2c1 [NAFAMOSTAT] | –
26 | > 50000 nM | – | – | N=C(N)Nc1ccc(NC(=O)c2ccccc2)cc1 | –
27 | 32000 nM | – | – | CN(C)C(=O)COC(=O)Cc1ccc(OC(=O)c2ccc(NC(=N)N)cc2)cc1 [CAMOSTAT] | –
